# From the supplement of paper PMC10307832
# How the values were obtained:
# Assay in all cases: relative viability (nuclei count vs DMSO), 5 days (fraction); higher = more cells survive
# BEN = test system: BEN
# How it was run: (§1)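 A single step with final 0.05% Triton X-100, 1% formaldehyde and 1 ug/ml Hoechst fixed the cells and stained nuclei 5 days after treatment. Lung cancer cell lines in 1536-well plates had been treated by pin tool the day after seeding with one drug alone or a fixed anchor-drug dose plus five library-drug doses (not always all listed) in √10 steps, and nuclei were counted on 4× images. Relative viability is the ratio of nuclei in treated wells to nuclei in vehicle wells, taken as the median of duplicate plates.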
# ChaGo-K-1 = test system: ChaGo-K-1
# How it was run: as §1
# HCC-78 = test system: HCC-78
# How it was run: as §1
# LC-2-ad = test system: LC-2-ad
# How it was run: as §1
# LCLC-97TM1 = test system: LCLC-97TM1
# How it was run: as §1
# LK-2 = test system: LK-2
# How it was run: as §1
# LU99A = test system: LU99A
# How it was run: as §1
# LXF-289 = test system: LXF-289
# How it was run: as §1
# NCI-H1355 = test system: NCI-H1355
# How it was run: as §1
# NCI-H1651 = test system: NCI-H1651
# How it was run: as §1
# NCI-H1666 = test system: NCI-H1666
# How it was run: as §1
# NCI-H1944 = test system: NCI-H1944
# How it was run: as §1
# NCI-H1975 = test system: NCI-H1975
# How it was run: as §1
# NCI-H2087 = test system: NCI-H2087
# How it was run: as §1
# NCI-H358 = test system: NCI-H358
# How it was run: as §1
# NCI-H596 = test system: NCI-H596
# How it was run: as §1
# NCI-H650 = test system: NCI-H650
# How it was run: as §1
# NCI-H661 = test system: NCI-H661
# How it was run: as §1
# NCI-H838 = test system: NCI-H838
# How it was run: as §1
# PC-3 [JPC-3] = test system: PC-3 [JPC-3]
# How it was run: as §1
# SK-MES-1 = test system: SK-MES-1
# How it was run: as §1
smiles,measurement,setting,value
O=c1cc(N2CCOCC2)oc2c(-c3cccc4c3sc3ccccc34)cccc12 + CS(=O)(=O)N1CCN(Cc2cc3nc(-c4cccc5[nH]ncc45)nc(N4CCOCC4)c3s2)CC1 [Pictilisib] (partner 1 µM),relative viability,BEN; first compound 0.01 µM,0.593
same,relative viability,BEN; first compound 0.03162 µM,0.579
same,relative viability,BEN; first compound 0.1 µM,0.593
same,relative viability,BEN; first compound 0.3162 µM,0.655
same,relative viability,BEN; first compound 1 µM,0.535
same,relative viability,ChaGo-K-1; first compound 0.01 µM,0.648
same,relative viability,ChaGo-K-1; first compound 0.03162 µM,0.791
same,relative viability,ChaGo-K-1; first compound 0.1 µM,0.448
same,relative viability,ChaGo-K-1; first compound 0.3162 µM,0.901
same,relative viability,ChaGo-K-1; first compound 1 µM,0.663
same,relative viability,HCC-78; first compound 0.01 µM,0.209
same,relative viability,HCC-78; first compound 0.03162 µM,0.204
same,relative viability,HCC-78; first compound 0.1 µM,0.178
same,relative viability,HCC-78; first compound 0.3162 µM,0.242
same,relative viability,HCC-78; first compound 1 µM,0.191
same,relative viability,LC-2-ad; first compound 0.01 µM,0.39
same,relative viability,LC-2-ad; first compound 0.1 µM,0.578
same,relative viability,LC-2-ad; first compound 0.3162 µM,0.456
same,relative viability,LC-2-ad; first compound 1 µM,0.526
same,relative viability,LCLC-97TM1; first compound 0.01 µM,0.177
same,relative viability,LCLC-97TM1; first compound 0.03162 µM,0.271
same,relative viability,LCLC-97TM1; first compound 0.3162 µM,0.233
same,relative viability,LCLC-97TM1; first compound 1 µM,0.145
same,relative viability,LK-2; first compound 0.01 µM,0.676
same,relative viability,LK-2; first compound 0.03162 µM,0.562
same,relative viability,LK-2; first compound 0.1 µM,0.615
same,relative viability,LK-2; first compound 0.3162 µM,0.578
same,relative viability,LK-2; first compound 1 µM,0.64
same,relative viability,LU99A; first compound 0.01 µM,0.384
same,relative viability,LU99A; first compound 0.03162 µM,0.3
same,relative viability,LU99A; first compound 0.1 µM,0.333
same,relative viability,LU99A; first compound 0.3162 µM,0.367
same,relative viability,LU99A; first compound 1 µM,0.343
same,relative viability,LXF-289; first compound 0.01 µM,0.877
same,relative viability,LXF-289; first compound 0.03162 µM,0.815
same,relative viability,LXF-289; first compound 0.1 µM,0.881
same,relative viability,LXF-289; first compound 0.3162 µM,0.754
same,relative viability,LXF-289; first compound 1 µM,0.843
same,relative viability,NCI-H1355; first compound 0.01 µM,0.486
same,relative viability,NCI-H1355; first compound 0.03162 µM,0.502
same,relative viability,NCI-H1355; first compound 0.3162 µM,0.429
same,relative viability,NCI-H1355; first compound 1 µM,0.419
same,relative viability,NCI-H1651; first compound 0.01 µM,0.451
same,relative viability,NCI-H1651; first compound 0.03162 µM,0.642
same,relative viability,NCI-H1651; first compound 0.1 µM,0.636
same,relative viability,NCI-H1651; first compound 0.3162 µM,0.615
same,relative viability,NCI-H1651; first compound 1 µM,0.56
same,relative viability,NCI-H1666; first compound 0.01 µM,0.443
same,relative viability,NCI-H1666; first compound 0.03162 µM,0.483
same,relative viability,NCI-H1666; first compound 0.1 µM,0.504
same,relative viability,NCI-H1666; first compound 0.3162 µM,0.412
same,relative viability,NCI-H1666; first compound 1 µM,0.339
same,relative viability,NCI-H1944; first compound 0.01 µM,0.349
same,relative viability,NCI-H1944; first compound 0.03162 µM,0.336
same,relative viability,NCI-H1944; first compound 0.1 µM,0.349
same,relative viability,NCI-H1944; first compound 0.3162 µM,0.348
same,relative viability,NCI-H1944; first compound 1 µM,0.35
same,relative viability,NCI-H1975; first compound 0.01 µM,0.272
same,relative viability,NCI-H1975; first compound 0.03162 µM,0.307
same,relative viability,NCI-H1975; first compound 0.1 µM,0.287
same,relative viability,NCI-H1975; first compound 0.3162 µM,0.305
same,relative viability,NCI-H1975; first compound 1 µM,0.28
same,relative viability,NCI-H2087; first compound 0.01 µM,0.745
same,relative viability,NCI-H2087; first compound 0.03162 µM,0.861
same,relative viability,NCI-H2087; first compound 0.1 µM,0.851
same,relative viability,NCI-H2087; first compound 0.3162 µM,0.783
same,relative viability,NCI-H2087; first compound 1 µM,1
same,relative viability,NCI-H358; first compound 0.01 µM,0.339
same,relative viability,NCI-H358; first compound 0.03162 µM,0.353
same,relative viability,NCI-H358; first compound 0.1 µM,0.338
same,relative viability,NCI-H358; first compound 0.3162 µM,0.307
same,relative viability,NCI-H358; first compound 1 µM,0.318
same,relative viability,NCI-H596; first compound 0.01 µM,0.442
same,relative viability,NCI-H596; first compound 0.03162 µM,0.39
same,relative viability,NCI-H596; first compound 0.1 µM,0.38
same,relative viability,NCI-H596; first compound 0.3162 µM,0.395
same,relative viability,NCI-H596; first compound 1 µM,0.38
same,relative viability,NCI-H650; first compound 0.01 µM,0.907
same,relative viability,NCI-H650; first compound 0.03162 µM,1
same,relative viability,NCI-H650; first compound 0.3162 µM,0.896
same,relative viability,NCI-H650; first compound 1 µM,1.04
same,relative viability,NCI-H661; first compound 0.01 µM,0.362
same,relative viability,NCI-H661; first compound 0.03162 µM,0.352
same,relative viability,NCI-H661; first compound 0.1 µM,0.376
same,relative viability,NCI-H661; first compound 0.3162 µM,0.409
same,relative viability,NCI-H661; first compound 1 µM,0.331
same,relative viability,NCI-H838; first compound 0.01 µM,0.427
same,relative viability,NCI-H838; first compound 0.03162 µM,0.389
same,relative viability,NCI-H838; first compound 0.1 µM,0.434
same,relative viability,NCI-H838; first compound 0.3162 µM,0.472
same,relative viability,NCI-H838; first compound 1 µM,0.388
same,relative viability,PC-3 [JPC-3]; first compound 0.01 µM,0.751
same,relative viability,PC-3 [JPC-3]; first compound 0.03162 µM,0.747
same,relative viability,PC-3 [JPC-3]; first compound 0.1 µM,0.711
same,relative viability,PC-3 [JPC-3]; first compound 0.3162 µM,0.727
same,relative viability,PC-3 [JPC-3]; first compound 1 µM,0.739
same,relative viability,SK-MES-1; first compound 0.01 µM,0.327
same,relative viability,SK-MES-1; first compound 0.03162 µM,0.314
same,relative viability,SK-MES-1; first compound 0.1 µM,0.396
same,relative viability,SK-MES-1; first compound 0.3162 µM,0.31
same,relative viability,SK-MES-1; first compound 1 µM,0.362
